This is an account of results in PubChem BioAssay (NCI).

Each structure is given as a SMILES string.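 Exposure lasted 48 hours, with cells grown in 96-well plates and compounds tested at five concentrations. GI50 marks 50% less growth. TGI: concentration producing complete growth inhibition.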 Some results are limits rather than exact numbers.

One may read the TGI as the concentration at which net growth stops. As a reminder, the GI50 is the concentration at which growth is held to half of that of the control.

Test systems include SW-620 colon; A549 NSCLC; OVCAR-3 ovarian; M14 melanoma; RPMI-8226 leukemia; A498 renal; SNB-19 CNS; K-562 leukemia; T-47D breast; HOP-92 NSCLC.
What all share (assay): DTP human tumour cell line panel, 48 h

Take `CSc1nc(Nc2cccc(C(F)(F)F)c2)c2c(N)nn(C)c2n1`: the TGI in the assay with SW-620 colon, with A549 NSCLC, in the assay on OVCAR-3 ovarian, in the assay on M14 melanoma, in the assay with RPMI-8226 leukemia and in the assay with A498 renal was over 100 µM in each case. Also, the TGI with SNB-19 CNS, in the assay on K-562 leukemia and in the assay with T-47D breast was over 100 µM throughout.

For the compound `CC(OC(C)(C)C)[C@H](NC(=O)OCC(Cl)(Cl)Cl)C(=O)O` (some centres undefined), the TGI in the assay with SW-620 colon, in the assay on A549 NSCLC, in the assay with OVCAR-3 ovarian, in the assay on M14 melanoma, in the assay on RPMI-8226 leukemia and in the assay on HOP-92 NSCLC was over 100 µM in each case. For the same compound, the TGI in the assay on A498 renal, in the assay with SNB-19 CNS and in the assay with K-562 leukemia was over 100 µM each time.

Regarding `C=C(C)[C@@H]1CC[C@]2(C(=O)NC3CCCCC3)CC[C@]3(C)[C@H](CC[C@@H]4[C@@]5(C)CCCNC(C)(C)[C@@H]5CC[C@]43C)[C@@H]12`, the GI50 in the assay with SW-620 colon was 1670 nM; with OVCAR-3 ovarian, 1870 nM; in the assay with HOP-92 NSCLC, 1.55 µM; in the assay with A498 renal it was 14300 nM; in the assay with SNB-19 CNS, 5510 nM. In addition, the concentration for total growth inhibition (TGI) worked out at 3.15 µM with SW-620 colon; 3.57 µM in the assay on OVCAR-3 ovarian; 3.15 µM in the assay on HOP-92 NSCLC; 28.8 µM in the assay with A498 renal; 33.3 µM in the assay with SNB-19 CNS.

Regarding `CN(C)CCC(=O)c1ccccc1`, the TGI in the assay on SW-620 colon was 32.4 µM; in the assay on A549 NSCLC, over 82.1 µM; in the assay on OVCAR-3 ovarian, over 73.4 µM; in the assay with M14 melanoma it was 52.6 µM; in the assay on RPMI-8226 leukemia, over 100 µM; with HOP-92 NSCLC, 44.6 µM. Also, the TGI was over 95.5 µM with A498 renal, over 100 µM in the assay with SNB-19 CNS and 85.4 µM in the assay with K-562 leukemia.

`COC(=O)C1=C(C(=O)NNc2ccccc2)N(c2cccnc2Cl)C(c2ccccc2)=CC1c1ccccc1` (centres undefined): the TGI with SW-620 colon is over 100 µM; in the assay with A549 NSCLC, over 100 µM; in the assay with OVCAR-3 ovarian, over 100 µM; with M14 melanoma it was over 100 µM; with RPMI-8226 leukemia, 82.8 µM; in the assay on A498 renal, over 100 µM. In addition, the TGI in the assay with SNB-19 CNS, in the assay on K-562 leukemia and in the assay on T-47D breast was over 100 µM throughout.

On to `COc1ccc(/C=C2\N=C(SC)N(CN3CCOCC3)C2=O)cc1`, for which the TGI in the assay on SW-620 colon was over 100 µM; with A549 NSCLC, over 100 µM; in the assay with OVCAR-3 ovarian, over 100 µM; with M14 melanoma it was over 100 µM; in the assay on RPMI-8226 leukemia it was over 100 µM; in the assay on HOP-92 NSCLC it was 67.4 µM. Also, the TGI in the assay on A498 renal, with SNB-19 CNS and in the assay on K-562 leukemia was over 100 µM in each case.

Take `O=C(Cn1c[n+](CC(=O)c2ccc(-c3ccccc3)cc2)c2ccccc21)Nc1cccc2cccnc12`: the GI50 is 1620 nM in the assay with SW-620 colon; 3020 nM in the assay with A549 NSCLC; 0.677 µM with HOP-92 NSCLC; 1040 nM in the assay on A498 renal; 639 nM in the assay with K-562 leukemia. Also, the TGI in the assay with SW-620 colon is 3.05 µM; in the assay on A549 NSCLC, 13 µM; in the assay with HOP-92 NSCLC, 2.18 µM; in the assay with A498 renal it was 4.84 µM; in the assay on K-562 leukemia, over 100 µM.

As to `CC12CC(c3ccccc3O1)C(C(=O)Nc1ccc(Cl)cc1Cl)C(=O)N2` (centres undefined), the TGI was over 100 µM in the assay with SW-620 colon; 56.8 µM with A549 NSCLC; over 100 µM with OVCAR-3 ovarian; 31.9 µM with M14 melanoma; over 100 µM in the assay with RPMI-8226 leukemia; over 100 µM in the assay on SNB-19 CNS. Besides, the TGI in the assay with K-562 leukemia was over 100 µM; with T-47D breast, 70.9 µM.

In the case of `Nc1nc(N)c2c3c(cnc2n1)CC(c1ccccc1)CC3` (centres undefined), the TGI in the assay on SW-620 colon, in the assay on A549 NSCLC, in the assay on OVCAR-3 ovarian, in the assay with M14 melanoma, with RPMI-8226 leukemia and in the assay on A498 renal was over 100 µM throughout. Further, the values for the TGI with SNB-19 CNS, in the assay with K-562 leukemia and in the assay on T-47D breast were 46.8 µM, over 100 µM and 56.8 µM, respectively.

Consider `CCC(/C=C/C1OC(=O)C=CC1C)=C\C(C)C/C=C/C(C)=C/C(C)C(=O)C(C)C(O)C(C)C/C(C)=C/C(=O)O` (centres undefined), for which the GI50 with SW-620 colon was 0.00244 nM; in the assay on A549 NSCLC, 0.0164 nM; with OVCAR-3 ovarian it was 0.0145 nM; with RPMI-8226 leukemia, 3.11 pM; with HOP-92 NSCLC, 5.32 µM; with A498 renal it was 0.00131 nM. Further, the figures for the GI50 in the assay on SNB-19 CNS and with K-562 leukemia were 0.0253 nM and under 0.001 nM, respectively. Besides, the TGI with SW-620 colon turned out to be 6.29 µM; in the assay with A549 NSCLC, 3.96 µM; in the assay on M14 melanoma, 3.68e-05 µM; in the assay with SNB-19 CNS, 13.2 µM.

For the compound `CC(C)C(=O)OCC1OC(n2c(Br)nc3c(=O)[nH]c(N)nc32)C(OC(=O)C(C)C)C1OC(=O)C(C)C` (centres undefined), the TGI in the assay on SW-620 colon, in the assay on A549 NSCLC, in the assay on OVCAR-3 ovarian, with M14 melanoma, in the assay with HOP-92 NSCLC and with SNB-19 CNS was over 100 µM in each case. In the assay with T-47D breast, the TGI is over 100 µM.

As to `O=c1cc(-c2cccc3ccccc23)[nH]c2ncccc12`, the TGI was over 100 µM in the assay with SW-620 colon; over 100 µM in the assay with A549 NSCLC; over 100 µM in the assay on M14 melanoma; over 100 µM in the assay with RPMI-8226 leukemia; 70.1 µM in the assay with HOP-92 NSCLC; over 100 µM in the assay on SNB-19 CNS. This compound registered a TGI with K-562 leukemia of over 100 µM. Also, the GI50 with A549 NSCLC was 21.6 nM; with M14 melanoma, 0.0275 µM; in the assay on HOP-92 NSCLC, 0.773 µM; with SNB-19 CNS, 36.6 nM.

Regarding `O=c1c(/C=C/c2c(O)ccc3ccccc23)nnc2sc(-c3cccc(Br)c3)nn12`, the TGI in the assay on SW-620 colon is over 100 µM; in the assay with A549 NSCLC, over 100 µM; with OVCAR-3 ovarian it was over 100 µM; in the assay on M14 melanoma, 66.4 µM; with RPMI-8226 leukemia it was over 100 µM; in the assay on A498 renal, over 100 µM. Besides, the results for the TGI in the assay with SNB-19 CNS, in the assay with K-562 leukemia and with T-47D breast were over 100 µM, 77.7 µM and 37.3 µM, respectively.

Turning to `COC(=O)/C=C(\C)CC(O)/C=C(\C)CCC=C(C)C` (centres undefined), the TGI is over 100 µM in the assay on SW-620 colon; over 100 µM with A549 NSCLC; 87.7 µM with OVCAR-3 ovarian; over 100 µM in the assay on M14 melanoma; over 100 µM in the assay on HOP-92 NSCLC; over 100 µM in the assay with A498 renal. Moreover, the TGI in the assay with SNB-19 CNS and in the assay with K-562 leukemia was over 100 µM throughout.
